Results: US9522888B2, “Substituted bicyclic compounds” (BRISTOL-MYERS SQUIBB COMPANY, priority 2014, dated 2016)

What follows are molecules tested against S1P1 (membranes prepared from S1P1/CHO cells) (Homo sapiens (Human), UniProt P21453) (assay: Receptor [35S] GTPγS binding assay (S1P1 GTPγS)). Settings: phosphate examples; read-out: S1P1 GTPγS.
Sequence of S1P1 (membranes prepared from S1P1/CHO cells) (P21453 whole entry): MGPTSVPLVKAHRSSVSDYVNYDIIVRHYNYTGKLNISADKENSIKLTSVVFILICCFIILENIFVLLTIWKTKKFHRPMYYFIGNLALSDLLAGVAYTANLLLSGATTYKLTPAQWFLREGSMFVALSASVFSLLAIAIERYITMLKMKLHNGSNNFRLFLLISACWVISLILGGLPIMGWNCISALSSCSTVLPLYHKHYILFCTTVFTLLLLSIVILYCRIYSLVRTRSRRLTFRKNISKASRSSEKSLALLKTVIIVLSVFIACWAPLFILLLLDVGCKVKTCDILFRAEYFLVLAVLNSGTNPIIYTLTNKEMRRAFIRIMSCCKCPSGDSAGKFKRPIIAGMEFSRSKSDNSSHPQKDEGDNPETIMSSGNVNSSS
Format: biochemical
In short: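 Membranes from S1P1-expressing CHO cells (3 μg protein/well) incubated with compound (11-point, 3-fold dilution) and 0.2 nM final [35S]GTPγS, 45 min at room temperature. Assay buffer: 20 mM HEPES pH 7.5, 10 mM MgCl2, 150 mM NaCl, 10 μM GDP, 0.1% fatty-acid-free BSA, 10 μg/ml saponin. Filter-bound radioactivity counted by scintillation; EC50 derived.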
In the case of `C/C=C\CCC[C@@H]1CCc2cc([C@H]3CC[C@](N)(COP(=O)(O)O)C3)ccc2C1` [compound 656], the EC50 is reported as 0.01 to 0.1 µM.
`COc1cccc(C[C@H]2CCc3cc([C@H]4CC[C@](N)(COP(=O)(O)O)C4)ccc3C2)c1` [compound 567] gave an EC50 of under 0.01 µM.
For `CCCCO[C@H]1CCc2cc([C@H]3CC[C@](N)(COP(=O)(O)O)C3)ccc2C1` [compound 436], the EC50 was 0.01 to 0.1 µM.
For `CCCCCC(=O)NC1CCc2cc([C@H]3CC[C@@](N)(COP(=O)(O)O)C3)ccc2C1` (some centres unmarked) [compound 629], the EC50 was 0.1 to 1 µM.
Work on `COc1cc(OC[C@@H]2CCc3cc([C@H]4CC[C@](N)(COP(=O)(O)O)C4)ccc3C2)ccc1Cl` [compound 493] yielded an EC50 of under 0.01 µM.
`NC1(COP(=O)(O)O)CC[C@H](c2ccc3c(c2)CC[C@@H](c2ccccc2)C3)C1` (single isomer, unassigned) [compound 570] was tested, and the EC50 was 0.01 to 0.1 µM.
Work on `C/C=C/CCCC[C@H]1CCc2cc([C@H]3CC[C@](N)(COP(=O)(O)O)C3)ccc2C1` [compound 659] yielded an EC50 of under 0.01 µM.
`CCOc1cccc(C[C@@H]2CCc3cc([C@H]4CC[C@](N)(COP(=O)(O)O)C4)ccc3C2)c1` [compound 551] was tested, and the EC50 was 0.01 to 0.1 µM.
`N[C@]1(COP(=O)(O)O)CC[C@H](c2ccc3c(c2)CC[C@@H](CSc2ccncc2)C3)C1` [compound 517] showed an EC50 of 0.01 to 0.1 µM.
For `CCCCCO[C@@H]1CCc2cc([C@H]3CC[C@](N)(COP(=O)(O)O)C3)ccc2C1` [compound 430], the EC50 was 0.01 to 0.1 µM.
`N[C@]1(COP(=O)(O)O)CC[C@H](c2ccc3c(c2)CC[C@@H](CSc2cccnc2)C3)C1` [compound 516] gave an EC50 of 0.01 to 0.1 µM.

What follows are molecules tested against hS1P1/CHO cells (Homo sapiens (Human), UniProt P21453) (assay: hS1P1 ERK phosphorylation (S1P1 pERK)). Settings: phosphate examples.
Sequence of hS1P1/CHO cells (P21453 whole entry): as above
Format: cell-based
In short: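 CHO cells expressing human S1P1, serum-starved 2 h, exposed to compound in HBSS/20 mM HEPES for 7 min at 37° C. Lysates assayed for phospho-ERK by SureFire kit; response given as % activation relative to 10 μM S1P.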
With `C/C=C\CCC[C@@H]1CCc2cc([C@H]3CC[C@](N)(COP(=O)(O)O)C3)ccc2C1` [compound 656] the EC50 was 0.01 to 0.1 µM.
In the case of `COc1cccc(C[C@H]2CCc3cc([C@H]4CC[C@](N)(COP(=O)(O)O)C4)ccc3C2)c1` [compound 567], the EC50 is reported as 0.01 to 0.1 µM.
`CCCCO[C@H]1CCc2cc([C@H]3CC[C@](N)(COP(=O)(O)O)C3)ccc2C1` [compound 436] showed an EC50 of under 0.01 µM.
`CCCCCC(=O)NC1CCc2cc([C@H]3CC[C@@](N)(COP(=O)(O)O)C3)ccc2C1` (some centres unmarked) [compound 629] showed an EC50 of under 0.01 µM.
Molecule `COc1cc(OC[C@@H]2CCc3cc([C@H]4CC[C@](N)(COP(=O)(O)O)C4)ccc3C2)ccc1Cl` [compound 493] has an EC50 of 0.01 to 0.1 µM.
For `NC1(COP(=O)(O)O)CC[C@H](c2ccc3c(c2)CC[C@@H](c2ccccc2)C3)C1` (single isomer, unassigned) [compound 570], the EC50 was under 0.01 µM.
`C/C=C/CCCC[C@H]1CCc2cc([C@H]3CC[C@](N)(COP(=O)(O)O)C3)ccc2C1` [compound 659] was tested, and the EC50 was 0.01 to 0.1 µM.
`CCOc1cccc(C[C@@H]2CCc3cc([C@H]4CC[C@](N)(COP(=O)(O)O)C4)ccc3C2)c1` [compound 551] gave an EC50 of 0.01 to 0.1 µM.
Molecule `N[C@]1(COP(=O)(O)O)CC[C@H](c2ccc3c(c2)CC[C@@H](CSc2ccncc2)C3)C1` [compound 517] has an EC50 of under 0.01 µM.
`CCCCCO[C@@H]1CCc2cc([C@H]3CC[C@](N)(COP(=O)(O)O)C3)ccc2C1` [compound 430] showed an EC50 of under 0.01 µM.
`N[C@]1(COP(=O)(O)O)CC[C@H](c2ccc3c(c2)CC[C@@H](CSc2cccnc2)C3)C1` [compound 516] gave an EC50 of under 0.01 µM.

These molecules were tested against human S1P1 (Homo sapiens (Human), UniProt P21453) (assay: S1P1 binding assay (33P-S1P radioligand competition, CHO cell membranes)). Settings: phosphate examples; read-out: S1P1 Binding.
Sequence of human S1P1 (P21453 whole entry): as above
In short: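 Radioligand is 33P-S1P, competing for membranes from human S1P1-expressing CHO cells. Membranes resuspended in 50 mM HEPES pH 7.5, 100 mM NaCl, 1 mM MgCl2, 2 mM EDTA.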
`C/C=C\CCC[C@@H]1CCc2cc([C@H]3CC[C@](N)(COP(=O)(O)O)C3)ccc2C1` [compound 656] was tested, and the IC50 was 0.01 to 0.1 µM.
`COc1cccc(C[C@H]2CCc3cc([C@H]4CC[C@](N)(COP(=O)(O)O)C4)ccc3C2)c1` [compound 567] was tested, and the IC50 was under 0.01 µM.
`CCCCO[C@H]1CCc2cc([C@H]3CC[C@](N)(COP(=O)(O)O)C3)ccc2C1` [compound 436] was tested, and the IC50 was under 0.01 µM.
For `CCCCCC(=O)NC1CCc2cc([C@H]3CC[C@@](N)(COP(=O)(O)O)C3)ccc2C1` (some centres unmarked) [compound 629], the IC50 was 0.1 to 1 µM.
`COc1cc(OC[C@@H]2CCc3cc([C@H]4CC[C@](N)(COP(=O)(O)O)C4)ccc3C2)ccc1Cl` [compound 493] showed an IC50 of under 0.01 µM.
With `NC1(COP(=O)(O)O)CC[C@H](c2ccc3c(c2)CC[C@@H](c2ccccc2)C3)C1` (single isomer, unassigned) [compound 570] the IC50 was 0.01 to 0.1 µM.
For `C/C=C/CCCC[C@H]1CCc2cc([C@H]3CC[C@](N)(COP(=O)(O)O)C3)ccc2C1` [compound 659], the IC50 was under 0.01 µM.
For `CCOc1cccc(C[C@@H]2CCc3cc([C@H]4CC[C@](N)(COP(=O)(O)O)C4)ccc3C2)c1` [compound 551], the IC50 was 0.01 to 0.1 µM.
With `N[C@]1(COP(=O)(O)O)CC[C@H](c2ccc3c(c2)CC[C@@H](CSc2ccncc2)C3)C1` [compound 517] the IC50 was 0.01 to 0.1 µM.
Work on `CCCCCO[C@@H]1CCc2cc([C@H]3CC[C@](N)(COP(=O)(O)O)C3)ccc2C1` [compound 430] yielded an IC50 of 0.01 to 0.1 µM.
`N[C@]1(COP(=O)(O)O)CC[C@H](c2ccc3c(c2)CC[C@@H](CSc2cccnc2)C3)C1` [compound 516] showed an IC50 of 0.01 to 0.1 µM.

The molecules below were run against S1P3 (membranes prepared from EDG3-Gal5-bla HEK293T cells) (Homo sapiens (Human), UniProt Q99500) (assay: Receptor [35S] GTPγS binding assay (S1P3 GTPγS)). Settings: phosphate examples; read-out: S1P3 GTPγS.
Sequence of S1P3 (membranes prepared from EDG3-Gal5-bla HEK293T cells) (Q99500 whole entry): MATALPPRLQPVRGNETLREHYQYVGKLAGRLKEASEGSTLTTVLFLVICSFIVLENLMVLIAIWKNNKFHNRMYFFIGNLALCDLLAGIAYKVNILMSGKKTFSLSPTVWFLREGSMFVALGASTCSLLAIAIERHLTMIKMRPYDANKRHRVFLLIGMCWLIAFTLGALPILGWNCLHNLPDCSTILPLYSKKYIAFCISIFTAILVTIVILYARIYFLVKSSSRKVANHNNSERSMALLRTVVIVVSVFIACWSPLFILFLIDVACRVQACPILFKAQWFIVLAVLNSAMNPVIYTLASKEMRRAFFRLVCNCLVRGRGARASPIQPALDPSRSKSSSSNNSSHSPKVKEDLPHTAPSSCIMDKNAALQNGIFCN
Format: biochemical
In short: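 Membranes (3 μg protein/well) from S1P1/CHO cells or EDG3-Gal5-bla HEK293T cells (S1P3) were incubated 45 min at room temperature with 0.2 nM final [35S]GTPγS in HEPES pH 7.5 buffer with 10 μM GDP, MgCl2 and saponin. Bound label counted after filtration; EC50 from 11-point, 3-fold dilutions.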
Molecule `C/C=C\CCC[C@@H]1CCc2cc([C@H]3CC[C@](N)(COP(=O)(O)O)C3)ccc2C1` [compound 656] has an EC50 of over 0.625 µM.
For `COc1cccc(C[C@H]2CCc3cc([C@H]4CC[C@](N)(COP(=O)(O)O)C4)ccc3C2)c1` [compound 567], the EC50 was over 0.625 µM.
Work on `CCCCO[C@H]1CCc2cc([C@H]3CC[C@](N)(COP(=O)(O)O)C3)ccc2C1` [compound 436] yielded an EC50 of over 0.625 µM.
`CCCCCC(=O)NC1CCc2cc([C@H]3CC[C@@](N)(COP(=O)(O)O)C3)ccc2C1` (some centres unmarked) [compound 629] gave an EC50 of over 0.625 µM.
`COc1cc(OC[C@@H]2CCc3cc([C@H]4CC[C@](N)(COP(=O)(O)O)C4)ccc3C2)ccc1Cl` [compound 493] was tested, and the EC50 was over 0.625 µM.
For `NC1(COP(=O)(O)O)CC[C@H](c2ccc3c(c2)CC[C@@H](c2ccccc2)C3)C1` (single isomer, unassigned) [compound 570], the EC50 was over 0.625 µM.
`C/C=C/CCCC[C@H]1CCc2cc([C@H]3CC[C@](N)(COP(=O)(O)O)C3)ccc2C1` [compound 659] was tested, and the EC50 was over 0.625 µM.
`CCOc1cccc(C[C@@H]2CCc3cc([C@H]4CC[C@](N)(COP(=O)(O)O)C4)ccc3C2)c1` [compound 551] showed an EC50 of over 0.625 µM.
With `N[C@]1(COP(=O)(O)O)CC[C@H](c2ccc3c(c2)CC[C@@H](CSc2ccncc2)C3)C1` [compound 517] the EC50 was over 0.625 µM.
`CCCCCO[C@@H]1CCc2cc([C@H]3CC[C@](N)(COP(=O)(O)O)C3)ccc2C1` [compound 430] was tested, and the EC50 was over 0.625 µM.
For `N[C@]1(COP(=O)(O)O)CC[C@H](c2ccc3c(c2)CC[C@@H](CSc2cccnc2)C3)C1` [compound 516], the EC50 was over 0.625 µM.
